Laboratory results from patent US20250320471A1, “Method for Producing Compounds, Method for Producing Compound Library, Compound Library, and Screening Method” (The University of Tokyo, priority 2021, published 2025).

What was measured:
LimF [1] = assay: His-prenylation of low molecular weight compounds, peptides and proteins by LimF; format: biochemical, Limnothrix sp. CACIAM 69d; details: 125 μM substrate, 100 μM LimF, 2 mM GPP, 20 hours, standard conditions
Description: Next, various low molecular weight compounds, peptides, and proteins, including various compounds that have already been approved as pharmaceuticals, were subjected to His-prenylation facilitated by LimF.

GLP1R = molecular target: T1, GLP1R (Homo sapiens, UniProt P43220); assay: cAMP production activation test (cAMP Hunter eXpress GLP1R CHO-K1 GPCR assay kit); format: cell-based; details: GLP1R CHO-K1 cells
T1 construct: host or cells: CHO-K1
T1 sequence (P43220 24-463): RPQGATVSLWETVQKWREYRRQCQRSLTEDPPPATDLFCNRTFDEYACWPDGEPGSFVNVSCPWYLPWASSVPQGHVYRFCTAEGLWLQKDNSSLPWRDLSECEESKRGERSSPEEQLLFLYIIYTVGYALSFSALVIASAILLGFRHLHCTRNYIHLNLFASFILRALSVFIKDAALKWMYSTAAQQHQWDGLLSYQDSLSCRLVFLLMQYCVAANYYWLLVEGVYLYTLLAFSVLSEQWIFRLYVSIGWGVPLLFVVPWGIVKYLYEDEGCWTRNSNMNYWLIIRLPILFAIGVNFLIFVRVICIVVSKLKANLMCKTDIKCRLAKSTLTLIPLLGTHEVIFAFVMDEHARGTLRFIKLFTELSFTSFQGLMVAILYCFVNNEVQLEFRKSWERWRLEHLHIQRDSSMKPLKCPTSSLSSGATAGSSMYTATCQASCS
Experimental: The concentration range of the used peptides was from 0.33 μM to 20 nM.

Serum stability test = details: 5 μM peptide in human serum at 37° C.
Experimental: After various incubation times, a sample of 4 μL was taken from the reaction system, and the reaction was stopped by mixing with an equal amount (4 L) of methanol. After centrifugation at 13,000 rpm for 5 minutes, the supernatant was collected, and after adding 4 times the amount of 1% TFA-aqueous solution, centrifugation was performed for an additional 5 minutes. 1 μL of the obtained supernatant was measured by LC/MS, and the amount of each remaining peptide was quantified.

DPP-4 = DPP-4 (Homo sapiens, UniProt P27487); assay: DPP-4 digestion test; details: 5 μM peptide, Tris-Cl pH 8.0, 2.5 ng/L DPP-4, 37° C.
Sequence of DPP-4 (P27487 whole entry, species assumed): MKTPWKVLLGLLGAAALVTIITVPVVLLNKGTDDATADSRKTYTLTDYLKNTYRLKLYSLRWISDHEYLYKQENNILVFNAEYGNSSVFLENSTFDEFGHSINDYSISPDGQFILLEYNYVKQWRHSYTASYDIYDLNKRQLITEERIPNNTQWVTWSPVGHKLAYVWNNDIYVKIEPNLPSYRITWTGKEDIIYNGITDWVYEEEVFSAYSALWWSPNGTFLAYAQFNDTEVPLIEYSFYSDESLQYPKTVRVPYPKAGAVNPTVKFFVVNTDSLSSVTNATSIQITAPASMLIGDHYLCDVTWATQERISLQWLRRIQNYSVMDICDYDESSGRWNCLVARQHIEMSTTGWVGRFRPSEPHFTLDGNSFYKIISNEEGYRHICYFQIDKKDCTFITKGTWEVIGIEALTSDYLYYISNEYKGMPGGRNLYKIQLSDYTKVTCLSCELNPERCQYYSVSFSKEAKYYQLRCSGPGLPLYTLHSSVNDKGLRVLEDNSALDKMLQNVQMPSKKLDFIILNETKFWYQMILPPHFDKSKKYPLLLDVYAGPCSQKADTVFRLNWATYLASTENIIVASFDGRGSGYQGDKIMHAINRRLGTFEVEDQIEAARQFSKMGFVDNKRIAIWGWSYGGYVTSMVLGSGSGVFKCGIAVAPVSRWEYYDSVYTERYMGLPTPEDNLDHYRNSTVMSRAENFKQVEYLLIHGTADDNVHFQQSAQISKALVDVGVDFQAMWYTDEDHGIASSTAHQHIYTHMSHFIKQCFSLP
Experimental: After various incubation times, a sample of 4 μL was taken from the reaction system, and the reaction was stopped by adding 4 times the amount (16 L) of a 1% TFA-aqueous solution. After centrifugation at 13,000 rpm for 5 minutes, 1 μL of the supernatant was measured by LC/MS, and the amount of each remaining peptide was quantified.

LimF [2] = assay: Prenylation of high molecular weight proteins by LimF (MALDI-TOF-MS); format: biochemical, Limnothrix sp. CACIAM 69d; details: 10 μM protein, 10 μM LimF, 2 mM GPP, 20 hours
Experimental: Moreover, His-prenylation by LimF was also performed for two types of high molecular weight proteins (acetylated bovine-derived albumin (Ac-BSA (Wako Pure Chemical Industries)) and horse-derived glutathione-S-transferase (GST (Sigma-Aldrich Japan))). Specifically, 10 μM Ac-BSA or 10 μM GST was reacted for 20 hours in the presence of 10 μM LimF and 2 mM GPP under previously optimized standard conditions. After desalting the reaction solution after the reaction by solid phase extraction (SPE C-TIP (Nikkyo Technos)), using sinapinic acid as a matrix, analysis was performed using a matrix-assisted laser desorption ionization-time-of-flight mass spectrometer (MALDI-TOF-MS, ultrafleXtreme manufactured by Bruker Daltonics).

PagF = details: Tyr C5 O-prenylation; cited from earlier work
LynF = details: Tyr C5 O-prenylation; cited from earlier work
bcLimE2 = molecular target: T2, bcLimE2
T2 chain: RYPHEEIP

teR6-H5A = molecular target: T3, teR6-H5A
T3 chain: FRGNATYIPC

For `CC[C@H](C)[C@H](NC(=O)C(Cc1ccccc1)NC(=O)[C@H](CCC(=O)O)NCCCCN[C@@H](CCCCN)C(=O)C(=O)[C@H](C)NC(=O)C(CCC(N)=O)NC(=O)CNC(=O)C(CCC(=O)O)NC(=O)[C@H](CC(C)C)NC(=O)C(Cc1ccc(O)cc1)NC(=O)[C@H](CO)NC(=O)C(CO)NCCCCN[C@H](C(=O)C(=O)[C@H](CC(N)=O)NC(=O)C(CO)NC(=O)[C@@H](NC(=O)C(Cc1ccccc1)NC(=O)[C@@H](NC(=O)CNC(=O)[C@H](CCC(=O)O)NC(=O)C(C)NC(=O)[C@@H](N)Cc1cnc[nH]1)[C@@H](C)O)[C@@H](C)O)C(C)C)C(=O)NC(C)C(=O)N[C@@H](Cc1c[nH]c2ccccc12)C(=O)NC(CC(C)C)C(=O)N[C@H](C(=O)NC(CCCCN)C(=O)NCC(=O)C(=O)[C@H](CCCNC(=N)N)NN)C(C)C` (some centres unmarked) [GLP-1, HAEGTFTSDVSSYLEGGAAKEFIAWLVKGR], the “His-prenylation efficiency (LC/MS)” value (LimF [1]) was 75%, the “cAMP production activation ability” value (GLP1R) was “strongly activated cAMP production” and the “serum stability (remaining peptide by LC/MS)” value (Serum stability test) was “rapid degradation”. For the same molecule, the “stability in DPP-4 digestion test (remaining peptide by LC/MS)” value (DPP-4) was “rapid degradation”.

For “Ac-BSA: acetylated bovine-derived albumin”, the “number of prenylations by LimF (mass spectrum)” value (LimF [2]) was “two locations”.

For `CC(C)(C)OC(=O)N[C@@H](Cc1ccc(O)cc1)C(=O)O` [N-boc-L-Tyr], the Kcat (PagF) is given as 0.183 s⁻¹, the Km (PagF) is given as 6.2 mM and the Kcat (LynF) is given as 0.0177 s⁻¹. The Km (LynF) was 14 mM.

B1: LimF (wild-type) (protein)
chain: MKKRKSSKVFKSTIAPEEKLRYIGNHKQAFDIEPLYPLALFEEFVATTGDCIIECSGKIKQDQLYPARIDLQFSDKHHFHNIHTSIDFLKRAASRTDVNLNLDILATFLAGNFDYSKVQNILAGIDLRQNLGESKLKLFIRIGDYPAKMAVAKHLCNITPESEAMLRSDTLHIGFDFYLDGRSAIELYPELKKDEFNHPFIYNQLKTILSPEALKPLPLCNLFGIGLSPANEANVLYYHLENIEDFLSYFPINDTARRVHDFYLQQEGSRRMWVALSESEMKAGRINNVNLYYSKAFTSQNP
Work on B1 yielded a Km (mM), steady-state kinetics of His-prenylation with GPP (bcLimE2) of 0.31 mM and a Km (mM), steady-state kinetics of Tyr-prenylation with GPP (teR6-H5A) of 7.3 mM.
